Measured values reported in article PMC7943599, “ATP signaling in the integrative neural center of Aplysia californica” (Scientific Reports, 2021).
pEC50, pIC50: −log10 of the molar value.

Legend:
[1] = biological target: T1, AcP2X (Aplysia P2X receptor) (Aplysia californica, UniProt E2QDA7); assay: two-electrode voltage clamp in Xenopus oocytes, agonist dose-response (fast component; slow component EC50 […]); format: cell-based
T1 construct: full-length CDS AcP2X (GenBank NP_001191558.1) expressed in Xenopus oocytes
T1 sequence (E2QDA7 1-434): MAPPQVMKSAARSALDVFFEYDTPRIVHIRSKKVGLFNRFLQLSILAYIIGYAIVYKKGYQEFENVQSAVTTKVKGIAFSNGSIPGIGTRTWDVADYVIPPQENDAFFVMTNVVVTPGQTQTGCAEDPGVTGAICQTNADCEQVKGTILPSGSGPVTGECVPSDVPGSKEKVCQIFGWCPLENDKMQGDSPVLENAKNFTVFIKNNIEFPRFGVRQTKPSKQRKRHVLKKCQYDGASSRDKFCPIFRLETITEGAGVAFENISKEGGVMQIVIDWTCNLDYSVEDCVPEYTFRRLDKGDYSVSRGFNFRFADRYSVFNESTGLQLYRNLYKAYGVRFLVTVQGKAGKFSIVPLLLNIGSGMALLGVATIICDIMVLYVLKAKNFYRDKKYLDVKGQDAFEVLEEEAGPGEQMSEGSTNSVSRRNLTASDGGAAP

[2] = biological target: T1, AcP2X (Aplysia P2X receptor); assay: two-electrode voltage clamp in Xenopus oocytes, inhibition of current evoked by […] ATP (fast component); format: cell-based

| pIC50 [2] | SMILES | pEC50 [1] |
| --- | --- | --- |
| – | Nc1ncnc2c1ncn2[C@@H]1O[C@H](COP(=O)(O)OP(=O)(O)OP(=O)(O)O)[C@@H](O)[C@H]1O [ATP] | 3.51 |
| 3.68 | Cc1nc(/N=N/c2ccc(S(=O)(=O)O)cc2S(=O)(=O)O)c(COP(=O)(O)O)c(C=O)c1O [PPADS] | – |
